Assay results reported in EP2319852A1, “Triphenylphosphine derivatives” (Universitat Autònoma De Barcelona, priority 2009, dated 2011).

How the values were obtained:
[1] = Determination of water solubility of the sodium salts of the phosphines; assay type: physicochemical; details: saturated supernatant evaporated to dryness and weighed
Method: 3. Determination of water solubility of trifluoromethylated sulfonated phosphines of Formula (I)
Oversaturated aqueous solutions of the sodium salts of the phosphines of Formula (I) were prepared. The supernatant solution was ultracentrifugated, and then filtered through a nylon filter, a measured weight of this solution was evaporated to dryness and the solid residue was weighed.

[2] = Aerial oxidation of the phosphines in aqueous solution, followed by 31P{1H} NMR; assay type: physicochemical; details: for Oxidation percentage over time: distilled water, 5.10^-2 mM, open to air, vigorous stirring; for oxidize in the air: 5·10^-2 mM aqueous solution, room temperature
Method: 4. Aerial oxidation of the phosphines in aqueous solution
Solutions in distilled water (1 mL, 5.10^-2 mM ) of the phosphines represented below were prepared with the aim of comparing their inertness against aerial oxidation. The solutions were kept opened to air under vigorous stirring for 120 h. Aliquots were taken and analyzed by ^31P{^1H} NMR in order to quantify the oxidation progress.

O=S(=O)(O)c1cccc(P(c2ccccc2)c2ccccc2C(F)(F)F)c1 (centres unmarked) [Phosphine 9]
solubility thermodynamic [1]: 210 mg/mL

O=S(=O)([O-])c1cccc(P(c2ccccc2)c2ccccc2)c1.[Na+] [NaTPPMS, triphenylphosphine monosulfonate]
Oxidation percentage over time ([2]; 0 h): 0% | oxidize in the air ([2]; 16 h): about 5% | Oxidation percentage over time ([2]; 16 h): 4% | Oxidation percentage over time ([2]; 40 h): 25% | Oxidation percentage over time ([2]; 120 h): 68%

O=S(=O)(O)c1cccc(P(c2ccccc2)c2cc(C(F)(F)F)cc(C(F)(F)F)c2)c1 (centres unmarked) [Phosphine 8]
solubility thermodynamic [1]: > 1000 mg/mL

O=S(=O)(O)c1cccc(P(c2cc(C(F)(F)F)cc(C(F)(F)F)c2)c2cc(C(F)(F)F)cc(C(F)(F)F)c2)c1 [Phosphine 5]
solubility thermodynamic [1]: 2 to 12 mg/mL

O=S(=O)(O)c1cccc(P(c2ccccc2)c2ccc(C(F)(F)F)cc2)c1 (centres unmarked) [Phosphine 7]
solubility thermodynamic [1]: 500 mg/mL

O=S(=O)(O)c1cccc(P(c2ccccc2C(F)(F)F)c2ccccc2C(F)(F)F)c1 [Phosphine 6]
solubility thermodynamic [1]: 2 to 12 mg/mL

O=S(=O)(O)c1cccc(P(c2ccc(C(F)(F)F)cc2)c2ccc(C(F)(F)F)cc2)c1 [Phosphine 4]
solubility thermodynamic [1]: 2 to 12 mg/mL

O=S(=O)(O)c1cccc(P(c2cccc(S(=O)(=O)O)c2)c2ccccc2C(F)(F)F)c1 [Phosphine 3]
solubility thermodynamic [1]: 30 mg/mL

O=S(=O)([O-])c1cccc(P(c2ccccc2)c2cccc(S(=O)(=O)[O-])c2)c1.[Na+].[Na+] [Na2TPPDS]
Oxidation percentage over time ([2]; 0 h): 0% | oxidize in the air ([2]; 16 h): about 5% | Oxidation percentage over time ([2]; 16 h): 6% | Oxidation percentage over time ([2]; 40 h): 33% | Oxidation percentage over time ([2]; 120 h): 100%
